In article PMC11447812, “How ATP and dATP Act as Molecular Switches to Regulate Enzymatic Activity in the Prototypical Bacterial Class Ia Ribonucleotide Reductase” (Biochemistry, 2024):

Columns and labels:
[1] = molecular target: T1, E. coli class Ia RNR α subunit (W28A-α2) (Escherichia coli, UniProt P00452, W28A); assay: […] Å crystal structure W28A-α2-dATP/GTP; inhibition in activity assay; assay type: binding
T1 construct: gene nrdA; His6-W28A-α2
T1 sequence (P00452 1-761 W28A): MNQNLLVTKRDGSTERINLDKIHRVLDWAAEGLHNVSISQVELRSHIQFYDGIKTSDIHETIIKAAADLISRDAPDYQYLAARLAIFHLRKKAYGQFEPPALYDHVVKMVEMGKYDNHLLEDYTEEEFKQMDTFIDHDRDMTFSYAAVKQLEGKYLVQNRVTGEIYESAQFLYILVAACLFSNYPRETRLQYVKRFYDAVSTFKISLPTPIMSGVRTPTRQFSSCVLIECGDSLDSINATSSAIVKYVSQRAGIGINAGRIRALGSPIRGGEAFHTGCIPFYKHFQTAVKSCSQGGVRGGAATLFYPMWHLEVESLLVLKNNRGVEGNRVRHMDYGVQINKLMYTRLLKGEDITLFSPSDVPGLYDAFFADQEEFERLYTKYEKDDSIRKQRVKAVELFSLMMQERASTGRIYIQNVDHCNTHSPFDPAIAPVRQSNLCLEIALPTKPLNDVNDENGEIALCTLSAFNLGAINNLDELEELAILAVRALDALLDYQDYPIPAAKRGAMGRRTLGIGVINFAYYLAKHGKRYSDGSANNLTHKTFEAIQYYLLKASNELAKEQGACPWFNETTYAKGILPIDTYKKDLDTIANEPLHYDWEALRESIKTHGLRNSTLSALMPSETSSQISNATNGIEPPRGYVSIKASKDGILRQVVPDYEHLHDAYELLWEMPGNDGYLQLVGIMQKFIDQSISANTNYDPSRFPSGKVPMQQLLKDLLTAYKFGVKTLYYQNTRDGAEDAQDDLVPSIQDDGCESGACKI
T1 sequence (P69924 2-376 partner): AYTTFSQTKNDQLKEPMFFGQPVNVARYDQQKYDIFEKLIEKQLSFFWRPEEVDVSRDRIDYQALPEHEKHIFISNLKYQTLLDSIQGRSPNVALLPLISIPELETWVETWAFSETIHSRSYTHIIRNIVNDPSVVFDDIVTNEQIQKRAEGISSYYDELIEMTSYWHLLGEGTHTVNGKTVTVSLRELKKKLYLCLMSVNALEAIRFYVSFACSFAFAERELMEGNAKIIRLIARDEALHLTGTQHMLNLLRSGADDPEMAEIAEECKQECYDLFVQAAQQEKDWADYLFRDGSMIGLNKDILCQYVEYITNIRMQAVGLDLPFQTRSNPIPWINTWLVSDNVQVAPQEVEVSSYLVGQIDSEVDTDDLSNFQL

[2] = molecular target: T1, E. coli class Ia RNR α subunit (W28A-α2); assay: […] Å crystal structure with ATP; assay type: binding

| Structure (SMILES) | 3.55 Å crystal structure W28A-α2-dATP/GTP; inhibition in activity assay [1] | 2.6 Å crystal structure with ATP [2] |
| --- | --- | --- |
| Nc1ncnc2c1ncn2[C@H]1C[C@H](O)[C@@H](COP(=O)(O)OP(=O)(O)OP(=O)(O)O)O1 [dATP] | dATP was placed in the specificity site based on omit maps. |  |
| Nc1ccn([C@@H]2O[C@H](COP(=O)(O)OP(=O)(O)O)[C@@H](O)[C@H]2O)c(=O)n1 [CDP] |  | provides a higher-resolution picture of the active site bound to the CDP/ATP substrate/effector pair |
